Tested on: Bacillus thuringiensis spores
Assay: Killing of spores (Example 2): microtiter serial 10-fold dilution, growth read with MTT
Assay type: cell-based
Conditions: wells 7-8: KI only, no laccase, no methylsyringate, 1 hour 24 degrees Celsius pH 6.5
Protocol: Spore suspension was pipetted into the wells in row A of a microtiter plate. The reaction was initiated by the addition of laccase solution.
The microtiter plate was incubated at room temperature (24 degrees Celsius) for 1 hour.
In the tables growth is indicated with a “+” symbol.

Measured: growth

[I-].[K+] [KI, Potassium iodide]
+: 10-fold dilution step 4 | listed as B, 10-fold dilution step 1 | listed as C, 10-fold dilution step 2 | listed as D, 10-fold dilution step 3 | listed as F, 10-fold dilution step 5 | listed as G, 10-fold dilution step 6

Reference: US20050153856A1, “Methods and compositions for killing spores” (priority 2002, published 2005)
